Data from patent US20150072416A1, “METABOLITE FOR IMPROVING PRODUCTION, MAINTENANCE AND PROLIFERATION OF PLURIPOTENT STEM CELLS, COMPOSITION COMPRISING THE SAME, AND METHOD OF CULTURING PLURIPOTENT STEM CELL USING THE SAME” (KOREA RESEARCH INSTITUTE OF BIOSCIENCE AND BIOTENOLOGY, priority 2012, published 2015).

Legend:
[1] = tested on: human fibroblasts and human fibroblasts transfected with reprogramming factors; test: Cell growth and proliferation during reprogramming (viable cell count, BrdU, live-cell imaging); format: cell-based
Description: Human fibroblasts were seeded in a 6-well culture dish at a density of about 1×10^5 cells per well. The seeded cells were cultured for 26 days under the indicated culture conditions. To count the cell number, the cells were washed with PBS and treated with trypsin. The cell suspension was mixed with 0.4% (wt/vol) trypan blue solution, and the number of viable cells was counted on day 19 and day 26 using a hemocytometer (FIG. 10). Each experiment was performed in triplicate. Specifically, for BrdU incorporation, cells were incubated in the presence of 30 μM BrdU at 37° C. for 1 hour. After washing with PBS, the cells were fixed with 4% paraformaldehyde for 15 minutes and reacted in 1N HCl at room temperature for 15 minutes. The sample was washed and reacted with 0.1 M sodium tetraborate for 15 minutes. After washing, the cells were reacted with anti-BrdU antibody in 3% BSA-containing PBS for 1 hour, and then reacted with FITC-conjugated secondary antibody for 30 minutes. […] On day 12 of induction of reprogramming, virus expressing the cell-cycle regulators Geminin-GFP (green) and Cdt1-RFP (red) was introduced into the cells for 2 hours while slowly shaking the cells, and then an accelerator was added to the cells, followed by culture for 1 hour. The medium was replaced with fresh medium, and the cells were further cultured overnight and imaged with a fluorescence microscope. The images were obtained for at least 4 sections per sample, and the number of resting-stage cells (red) and dividing cells (green) was counted. The ratio of dividing cells was quantified by the green/red ratio.

p53, p21 and p16 = test: Expression of senescence-associated signaling factors (immunostaining, Western blot, real-time PCR); format: cell-based, human
Description: Total RNA was isolated from produced cells using an RNeasy Mini kit (Qiagen, Valencia, Calif.) and reverse-transcribed using a SuperScript First-strand synthesis system kit (Invitrogen) according to the manufacturer's instruction. Then, semi-quantitative RT-PCR was performed using a platinum Tag SuperMix kit (Invitrogen) under the following conditions: 94° C. for 3 minutes, and then 25-30 cycles, each consisting of 94° C. for 30 sec, 60° C. for 30 sec and 72° C. for 30 sec, followed by extension at 72° C. for 10 minutes.
For immunostaining, cells were seeded on Matrigel-coated 4-well Lab-Tek chamber slides (Nunc, Naperville, Ill.) and cultured for 5 days under the indicated conditions. […]
Cells were lysed with RIPA buffer (containing 50 mM Tris, pH 8.0, 150 mM NaCl, 1% NP-40, 0.1% SDS, 0.5% deoxycholic acid, 1 mM PMSF) and mixed with a protease inhibitor (Roche Applied Science, Indianapolis, Ind.) on ice for 15 minutes, followed by centrifugation at 20,000×g at 4° C. for 10 minutes. The supernatant was re-centrifuged for 10 minutes, and the protein concentration was measured using a BCA protein assay kit (Pierce, Rockford, Ill.). […] The density of the bands was analyzed using Image Gauge software (Fuji Photo Film GMBH, D) and normalized to the bands of the loading control (β-actin). […]

[2] = tested on: human fibroblasts transfected with reprogramming factors; test: Reprogramming kinetics of hiPSCs (stem cell marker expression, time to colonies); format: cell-based
Description: Total RNA was isolated from produced cells using an RNeasy Mini kit (Qiagen, Valencia, Calif.) and reverse-transcribed using a SuperScript First-strand synthesis system kit (Invitrogen) according to the manufacturer's instruction. Then, semi-quantitative RT-PCR was performed using a platinum Tag SuperMix kit (Invitrogen) under the following conditions: 94° C. for 3 minutes, and then 25-30 cycles, each consisting of 94° C. for 30 sec, 60° C. for 30 sec and 72° C. for 30 sec, followed by extension at 72° C. for 10 minutes. For immunostaining, cells were seeded on Matrigel-coated 4-well Lab-Tek chamber slides (Nunc, Naperville, Ill.) and cultured for 5 days under the indicated conditions. The cells were fixed in 4% paraformaldehyde at room temperature for 15 minutes, and then washed with PBS/0.2% BSA. Next, the cells were passed through PBS/0.2% BSA/0.1% Triton X-100 for 15 minutes, and then incubated with 4% normal donkey serum (Molecular Probes, Eugene, Oreg., USA) in PBS/0.2% BSA at room temperature for 1 hour. The cells were diluted with PBS/0.2% BSA, and then reacted with primary antibody at 4° C. for 2 hours. After washing, the cells were reacted with FITC- or Alexa594-conjugated secondary antibody (Invitrogen) in PBS/0.2% BSA at room temperature for 1 hour. The cells were counter-stained with 10 μg/ml DAPI. […] From day 5 of culture (D5), the expression levels of the stem cell markers Nanog and Tra-1-60 in the cell group treated with nicotinamide increased by 3 times and 8 times, respectively, compared to those in the untreated group (FIG. 6).

[3] = from day 5 of culture, compared to untreated group

## NC(=O)c1cccnc1 [nicotinamide]
[1]; 1 mM, day 12 of induction of reprogramming
  ratio of proliferating cells (live cell imaging): increased
[1]; 0.1, 1 and 10 mM, days 19 and 26, concentration-dependent
  number of healthy viable cells: increased
[1]; 0.1-1 mM, day 19 of induction of reprogramming
  number of actually dividing cells incorporated with BrdU: significantly increased
[1]; culture process for inducing reprogramming
  optimal nicotinamide concentration for promoting cell growth: 1 mM
p53, p21 and p16; 1 mM, reprogramming process
  mRNA and protein expression levels of p53, p21 and p16: significantly decreased
p53, p21 and p16; high concentration (20 mM)
  inhibition of expression of senescence factors p53, p27, p21 and p16: did not appear
[2]; cells treated with nicotinamide, 3 weeks or more generally required
  period of time required until hiPSCs colonies: ≤ 2 weeks
[2]; [3]
  increase in expression level of stem cell marker Nanog (immunostaining): 3 times
  increase in expression level of stem cell marker Tra-1-60 (immunostaining): 8 times
[2]; from day 7, real-time PCR
  mRNA expression levels of Nanog and TERT: rapidly increased
